# Measured values taken from ChEMBL document CHEMBL1150207, “Cytotoxicities of some flavonoid analogues” (1991).
# Tests used:
# Assay type in all cases: functional
# A549 = test: Cytotoxicity against human A549 cells after 6 days by MTT assay; settings: A549, 144 h, read-out: ED50 (the source's name)
# MCF7 = test: Cytotoxicity against human MCF7 cells after 6 days by MTT assay; settings: MCF7, 144 h, read-out: ED50 (the source's name)
# HT-29 = test: Cytotoxicity against human HT-29 cells after 6 days by MTT assay; settings: HT-29, 144 h, read-out: ED50 (the source's name)
# SK-MEL = test: Cytotoxicity against human SK-MEL cells after 6 days by MTT assay; settings: 144 h, read-out: ED50 (the source's name)
# Malme-3M = test: Cytotoxicity against human MALME-3M cells after 6 days by MTT assay; settings: 144 h, read-out: ED50 (the source's name)
SMILES,EC50 (A549),EC50 (MCF7),EC50 (HT-29),EC50 (SK-MEL),EC50 (Malme-3M)
O=c1cc(-c2cccc(O)c2)oc2c(O)c(O)ccc12,4.65 mg/L,3.71 mg/L,4.18 mg/L,3.66 mg/L,4.8 mg/L
O=c1cc(-c2cccc(O)c2)oc2cc(O)ccc12,> 25 mg/L,> 25 mg/L,> 25 mg/L,5.11 mg/L,> 25 mg/L
